Measured values from patent US10919877B2, “Multifunctional inhibitors of MEK/PI3K and mTOR/MEK/PI3K biological pathways and therapeutic methods using the same” (THE REGENTS OF THE UNIVERSITY OF MICHIGAN, priority 2016, dated 2021).
Entries after “also recorded” stand apart in the source; their conditions may differ. Like-named read-outs stand apart in the source and are kept apart here. Blank lines part the entries; values can stand above or below the compound they belong to.

How the values were obtained:
PI3Kγ [1] = target: T1, PI3Kγ (Homo sapiens, UniProt P48736); test: PI3K subtype enzyme inhibition; format: biochemical
T1 construct: purchased Life Technologies (assay run by the vendor)
T1 sequence (P48736 whole entry): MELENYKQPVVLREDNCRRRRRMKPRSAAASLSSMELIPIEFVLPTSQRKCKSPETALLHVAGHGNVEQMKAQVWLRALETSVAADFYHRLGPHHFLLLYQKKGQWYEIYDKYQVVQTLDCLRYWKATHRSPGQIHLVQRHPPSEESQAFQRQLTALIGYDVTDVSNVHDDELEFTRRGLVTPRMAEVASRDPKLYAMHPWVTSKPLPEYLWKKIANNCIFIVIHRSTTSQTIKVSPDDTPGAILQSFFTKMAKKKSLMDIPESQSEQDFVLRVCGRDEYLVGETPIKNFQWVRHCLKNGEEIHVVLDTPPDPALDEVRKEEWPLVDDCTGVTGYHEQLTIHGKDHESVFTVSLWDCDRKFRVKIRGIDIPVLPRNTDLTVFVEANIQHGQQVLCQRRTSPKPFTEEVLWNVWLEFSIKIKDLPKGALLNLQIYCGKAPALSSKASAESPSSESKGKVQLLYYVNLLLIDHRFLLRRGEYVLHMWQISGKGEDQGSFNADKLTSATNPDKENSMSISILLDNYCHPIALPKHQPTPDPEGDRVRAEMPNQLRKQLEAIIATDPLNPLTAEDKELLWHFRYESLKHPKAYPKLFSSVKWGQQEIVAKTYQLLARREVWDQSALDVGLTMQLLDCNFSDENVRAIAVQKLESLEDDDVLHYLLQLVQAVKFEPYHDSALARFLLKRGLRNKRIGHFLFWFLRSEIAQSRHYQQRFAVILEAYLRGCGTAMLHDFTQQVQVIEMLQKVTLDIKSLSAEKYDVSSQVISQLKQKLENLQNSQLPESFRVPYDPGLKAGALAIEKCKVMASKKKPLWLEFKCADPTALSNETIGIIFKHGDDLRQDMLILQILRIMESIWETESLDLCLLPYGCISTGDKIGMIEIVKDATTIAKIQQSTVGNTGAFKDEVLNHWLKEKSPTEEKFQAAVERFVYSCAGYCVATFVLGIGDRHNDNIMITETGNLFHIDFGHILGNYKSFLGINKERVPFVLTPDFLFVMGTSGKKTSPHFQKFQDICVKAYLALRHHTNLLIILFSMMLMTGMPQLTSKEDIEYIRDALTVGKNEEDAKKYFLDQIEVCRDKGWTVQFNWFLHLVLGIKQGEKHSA

colon tumors CT-26 = test: Tumor growth of subcutaneous colon tumors; format: in vivo, mice; conditions: for tumor growth: subcutaneous CT26, 400 mg/kg oral gavage, 14 days, vs vehicle
Protocol: (§1) In preliminary studies, several mouse models were tested for therapeutic efficacy using oral administration of ST-162. Athymic nude Foxn1 nu mice were used to evaluate oncogenic target modulation activity in vivo. Mice bearing intracerebral D54 tumors, subcutaneous colon tumors (CT26) and subcutaneous melanoma (A375 and A2058) tumors were treated with either vehicle control or 400 mg/kg of compound ST-162 by oral gavage for 14-30+ days.
In FIG. 10, compound ST-162 was administered for 14 days beginning when subcutaneous colon tumors CT-26 were measurable by caliper and MRI and tumor volumes were measured over time and compared to vehicle controls.
In FIG. 11, ST-162 was administered for 14 days beginning when subcutaneous colon tumors CT-26 were measurable by caliper and MRI and tumor volumes were measured over time and compared to vehicle controls. At day 14, two tumors were removed and compared for size and weight.

MEK1 and PI3K activities [2] = test: In vivo MEK1 and PI3K inhibition in subcutaneous melanoma tumors A357 and A2058 (Western blot); parameters: species or system mice; conditions: s.q. melanoma A357 and A2058, 400 mg/kg oral gavage, 2 hours
Protocol: Mice bearing s.q. melanoma tumors were treated with either vehicle or 400 mg/kg of ST-162 or ST-168 by oral gavage at 2 hours prior to sacrifice.

ERK1/2 phosphorylation = test: In vivo MEK1 inhibition in flank D54 and A549 tumor bearing mice (Western blot)
[3] = test system: pAkt in A549 and D54 cells; test: Cellular PI3K inhibition, Western blot of pAkt in cultured tumor cells; format: cell-based, human; conditions: 1 hour
Protocol: The in vitro MEK1 and PI3K inhibitory activity of these series of compounds was also assessed in cultured tumor cells (D54, A549). Cellular efficacy of MEK1 and PI3K inhibition by inhibitor compounds was measured by changes in phosphorylation of pErk1/2 and pAkt, respectively. […] Cells were incubated in the presence of indicated compounds for 1 hour and lysates probed with specific antibodies against pAKT and pERK 1/2 and compared with vehicle control (DMSO). A549 (FIG. 2A) and D54 (FIG. 2B) cells were treated with inhibitors at the indicated concentrations for 1 hour and subjected to Western blot analysis.
Western Blot Analysis. Cells were seeded in six-well dishes 24 hours prior to treatment and incubated with the respective inhibitor compound solutions for 1 h. Cells were washed with phosphatebuffered saline (PBS) and lysed with NP-40 lysis buffer (1% NP40, 150 mM NaCl, and 25 mM Tris, pH 8.0) supplemented with protease inhibitors (Complete protease inhibitor cocktail, Roche, Basel, Switzerland) and phosphatase inhibitors (PhosSTOP, Roche, Basel, Switzerland). Concentration of protein was determined using Lowry assays (Bio-Rad, Hercules, Calif.), and equal amounts of whole cell protein lysate were loaded in each lane and resolved using 4-12% gradient Bis-Tris gel (Invitrogen, CA). Proteins were transferred to 0.2 μm nitrocellulose membranes (Invitrogen, CA). Membranes were incubated overnight at 4° C. with primary antibodies after blocking, followed by incubation with appropriate horseradish peroxidase (HRP) conjugated secondary antibody at room temperature for 1 hour. ECL-Plus was used to detect the activity of peroxidase according to the manufacturer's protocol (Amersham Pharmacia, Uppsala, Sweden). Antibodies raised against phospho-p44/42 MAPK (Erk1/2) (Thr202/Tyr204), pAKT(5473), phospho-p70 S6K* and total ERK, AKT antibodies were purchased from Cell Signaling Technology (Beverly, Mass., USA), and anti-β actin (conjugated with HRP) was purchased from Abcam (Cambridge, Mass., USA). Secondary HRP antibodies were purchased from Jackson ImmunoResearch (St. Louis, Mo., USA).

D54 glioma cells = test: Cell viability, AlamarBlue assay; format: cell-based, human; conditions: dose dependence
[4] = test system: intracerebral D54 glioma tumors; test: Survival of mice bearing intracerebral D54 tumors; format: in vivo; conditions: intracerebral D54, 400 mg/kg oral gavage, vs vehicle control; listed as ST-162
Protocol: as §1

Akt phosphorylation = test: In vivo PI3K inhibition in flank D54 and A549 tumor bearing mice (Western blot)
MEK1 and PI3K activities [5] = test: In vivo MEK1 and PI3K inhibition in subcutaneous colon tumor CT26 (Western blot); parameters: species or system mice; conditions: subcutaneous CT26, 400 mg/kg oral gavage, 2 hours
Protocol: Mice bearing subcutaneous colon tumors were treated with either vehicle or 400 mg/kg of ST-162 or ST-168 by oral gavage at 2 hours prior to sacrifice. The known MEK inhibitor 901 and PI3K inhibitors were also evaluated in this study.

PI3Kβ = target: T2, PI3Kβ (Homo sapiens, UniProt P42338); test: PI3K subtype enzyme inhibition; format: biochemical
T2 construct: purchased Life Technologies (assay run by the vendor)
T2 sequence (P42338 whole entry): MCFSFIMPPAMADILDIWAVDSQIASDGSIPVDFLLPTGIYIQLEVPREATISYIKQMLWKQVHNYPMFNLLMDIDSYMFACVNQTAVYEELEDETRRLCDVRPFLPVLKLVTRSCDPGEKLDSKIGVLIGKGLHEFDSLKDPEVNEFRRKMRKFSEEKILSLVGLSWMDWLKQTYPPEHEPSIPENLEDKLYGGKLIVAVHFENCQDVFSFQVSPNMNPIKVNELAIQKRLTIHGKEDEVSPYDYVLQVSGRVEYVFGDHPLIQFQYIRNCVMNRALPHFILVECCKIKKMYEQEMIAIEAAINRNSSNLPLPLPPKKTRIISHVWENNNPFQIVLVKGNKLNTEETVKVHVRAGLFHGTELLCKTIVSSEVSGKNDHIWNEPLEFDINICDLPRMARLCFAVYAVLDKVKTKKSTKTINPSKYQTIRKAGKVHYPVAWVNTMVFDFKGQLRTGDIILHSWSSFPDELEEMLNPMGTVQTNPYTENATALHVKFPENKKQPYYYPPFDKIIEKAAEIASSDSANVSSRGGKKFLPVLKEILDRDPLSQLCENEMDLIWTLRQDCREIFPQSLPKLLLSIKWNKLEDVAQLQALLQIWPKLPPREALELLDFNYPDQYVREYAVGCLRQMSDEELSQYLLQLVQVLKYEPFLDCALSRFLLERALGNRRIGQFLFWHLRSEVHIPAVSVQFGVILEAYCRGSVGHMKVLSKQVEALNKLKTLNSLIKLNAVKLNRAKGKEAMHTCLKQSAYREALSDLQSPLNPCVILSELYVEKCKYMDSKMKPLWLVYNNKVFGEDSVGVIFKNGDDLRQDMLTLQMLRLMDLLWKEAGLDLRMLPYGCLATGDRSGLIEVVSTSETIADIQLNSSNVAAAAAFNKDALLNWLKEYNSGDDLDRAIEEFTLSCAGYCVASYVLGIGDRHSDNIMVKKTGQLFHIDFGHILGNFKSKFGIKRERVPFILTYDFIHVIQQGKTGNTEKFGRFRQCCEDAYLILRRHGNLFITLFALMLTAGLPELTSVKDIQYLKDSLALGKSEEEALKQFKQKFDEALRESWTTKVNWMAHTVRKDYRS
T2 sequence (P27986 whole entry partner): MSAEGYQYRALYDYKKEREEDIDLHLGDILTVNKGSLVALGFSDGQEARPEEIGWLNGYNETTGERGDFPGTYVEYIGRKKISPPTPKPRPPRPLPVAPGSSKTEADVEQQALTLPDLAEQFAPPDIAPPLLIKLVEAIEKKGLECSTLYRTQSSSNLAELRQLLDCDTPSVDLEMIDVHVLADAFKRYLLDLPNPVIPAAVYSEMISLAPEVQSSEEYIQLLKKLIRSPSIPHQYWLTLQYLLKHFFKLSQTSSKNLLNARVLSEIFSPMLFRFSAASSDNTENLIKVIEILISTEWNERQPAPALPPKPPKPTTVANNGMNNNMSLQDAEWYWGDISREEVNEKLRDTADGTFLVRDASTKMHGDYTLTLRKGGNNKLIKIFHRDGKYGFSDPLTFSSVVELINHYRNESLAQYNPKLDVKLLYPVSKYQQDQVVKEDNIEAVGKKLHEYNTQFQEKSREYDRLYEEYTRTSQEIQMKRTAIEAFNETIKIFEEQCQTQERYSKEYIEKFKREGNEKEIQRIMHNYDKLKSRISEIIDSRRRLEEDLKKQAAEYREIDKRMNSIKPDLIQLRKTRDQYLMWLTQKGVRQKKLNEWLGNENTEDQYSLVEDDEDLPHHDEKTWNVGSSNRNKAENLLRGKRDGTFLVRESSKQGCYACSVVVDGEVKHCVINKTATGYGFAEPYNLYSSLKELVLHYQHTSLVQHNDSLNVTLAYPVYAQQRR

PI3Kα = target: T3, PI3Kα (Homo sapiens, UniProt P42336); test: PI3K subtype enzyme inhibition; format: biochemical
T3 construct: purchased Life Technologies (assay run by the vendor)
T3 sequence (P42336 whole entry): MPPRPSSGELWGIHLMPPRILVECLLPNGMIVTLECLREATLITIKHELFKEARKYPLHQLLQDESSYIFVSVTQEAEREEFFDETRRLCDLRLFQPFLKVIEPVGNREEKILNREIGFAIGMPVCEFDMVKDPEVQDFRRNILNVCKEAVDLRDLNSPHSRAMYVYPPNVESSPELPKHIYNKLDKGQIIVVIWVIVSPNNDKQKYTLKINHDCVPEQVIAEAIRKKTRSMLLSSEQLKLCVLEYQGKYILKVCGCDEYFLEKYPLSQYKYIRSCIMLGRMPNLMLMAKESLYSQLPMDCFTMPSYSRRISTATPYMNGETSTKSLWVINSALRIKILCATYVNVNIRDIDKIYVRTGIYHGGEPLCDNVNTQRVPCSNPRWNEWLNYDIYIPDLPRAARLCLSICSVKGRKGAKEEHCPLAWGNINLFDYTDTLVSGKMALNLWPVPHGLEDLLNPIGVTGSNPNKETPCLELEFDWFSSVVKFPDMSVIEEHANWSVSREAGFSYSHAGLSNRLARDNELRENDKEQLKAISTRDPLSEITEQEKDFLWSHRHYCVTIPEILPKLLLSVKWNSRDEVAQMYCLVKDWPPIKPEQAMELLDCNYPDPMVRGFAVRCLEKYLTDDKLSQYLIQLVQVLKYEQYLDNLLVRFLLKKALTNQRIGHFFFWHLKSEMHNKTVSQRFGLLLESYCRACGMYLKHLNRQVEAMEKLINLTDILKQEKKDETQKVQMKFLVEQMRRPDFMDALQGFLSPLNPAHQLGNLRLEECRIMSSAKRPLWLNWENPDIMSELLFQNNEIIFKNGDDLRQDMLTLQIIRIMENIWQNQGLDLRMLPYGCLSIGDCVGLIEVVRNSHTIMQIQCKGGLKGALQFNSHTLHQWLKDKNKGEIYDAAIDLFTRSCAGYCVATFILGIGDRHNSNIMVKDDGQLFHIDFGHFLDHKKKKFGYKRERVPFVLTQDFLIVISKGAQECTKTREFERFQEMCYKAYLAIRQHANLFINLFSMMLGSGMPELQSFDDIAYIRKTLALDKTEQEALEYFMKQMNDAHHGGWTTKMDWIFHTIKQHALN
T3 sequence (P27986 whole entry partner): as the sequence (P27986 whole entry partner) above

[6] = test system: melanoma tumors A2058 and A357; test: Tumor growth of subcutaneous melanoma tumors; format: in vivo, mice; conditions: 400 mg/kg oral gavage, 14 days, vs vehicle, listed as ST-162, 400 mg/kg
Protocol: as §1
In FIG. 9, compound ST-162 was administered for 14 days beginning when subcutaneous melanoma tumors A2058 and A357 were measurable by caliper and MRI and tumor volumes were measured over time and compared to vehicle controls.

[7] = test system: A375 (melanoma), D54 (glioma), CT26 colorectal cancer, A2058 (melanoma) cell lines; test: Concurrent inhibition in tumor cell lines (multifunctional inhibitors); format: cell-based
From the text: The synthesis of another series of single entity, multifunctional inhibitors achieved by covalent linking of structural analogs of a PI3K inhibitor mTOR inhibitor, and an MEK inhibitor is also disclosed.

MEK1 and PI3K activities [8] = test: In vivo MEK1 and PI3K inhibition in intracerebral D54 glioma bearing mice (Western blot); conditions: intracerebral D54, 400 mg/kg oral gavage, 2 hours
Protocol: Mice bearing i.c. D54 tumors were treated with either vehicle or 400 mg/kg of ST-162 or ST-168 by oral gavage at 2 hours prior to sacrifice.

MEK1 = target: T4, MEK1 (Homo sapiens, UniProt Q02750); test: In vitro MEK1 inhibition assay (Kinase-Glo luminescent kinase assay); format: biochemical; conditions: average of three experiments each conducted in duplicate
T4 construct: purchased Sigma-Aldrich

A549 lung tumor cells = test: Cell viability, AlamarBlue assay; format: cell-based, human; conditions: dose dependence
PI3K = PI3K (Homo sapiens, UniProt P42336); test: In vitro PI3K inhibition assay (Adapta TR-FRET); format: biochemical; conditions: average of three experiments each conducted in duplicate
[9] = test system: pErk1/2 in A549 and D54 cells; test: Cellular MEK1 inhibition, Western blot of pErk1/2 in cultured tumor cells; format: cell-based, human; conditions: A549 and D54 cell lines, 1 hour
PI3Kγ [10] = target: T1, PI3Kγ; conditions: second value in parentheses, unexplained; cited from earlier work
A375 melanoma tumor = test: In vivo efficacy in A375 melanoma tumor bearing mice
From the text: (§2) The synthesis of another series of single entity, multifunctional inhibitors achieved by covalent linking of structural analogs of a PI3K inhibitor mTOR inhibitor, and an MEK inhibitor is also disclosed. […] […].

PI3Kδ = target: T5, PI3Kδ (Homo sapiens, UniProt O00329); test: PI3K subtype enzyme inhibition; format: biochemical
T5 construct: purchased Life Technologies (assay run by the vendor)
T5 sequence (O00329 whole entry): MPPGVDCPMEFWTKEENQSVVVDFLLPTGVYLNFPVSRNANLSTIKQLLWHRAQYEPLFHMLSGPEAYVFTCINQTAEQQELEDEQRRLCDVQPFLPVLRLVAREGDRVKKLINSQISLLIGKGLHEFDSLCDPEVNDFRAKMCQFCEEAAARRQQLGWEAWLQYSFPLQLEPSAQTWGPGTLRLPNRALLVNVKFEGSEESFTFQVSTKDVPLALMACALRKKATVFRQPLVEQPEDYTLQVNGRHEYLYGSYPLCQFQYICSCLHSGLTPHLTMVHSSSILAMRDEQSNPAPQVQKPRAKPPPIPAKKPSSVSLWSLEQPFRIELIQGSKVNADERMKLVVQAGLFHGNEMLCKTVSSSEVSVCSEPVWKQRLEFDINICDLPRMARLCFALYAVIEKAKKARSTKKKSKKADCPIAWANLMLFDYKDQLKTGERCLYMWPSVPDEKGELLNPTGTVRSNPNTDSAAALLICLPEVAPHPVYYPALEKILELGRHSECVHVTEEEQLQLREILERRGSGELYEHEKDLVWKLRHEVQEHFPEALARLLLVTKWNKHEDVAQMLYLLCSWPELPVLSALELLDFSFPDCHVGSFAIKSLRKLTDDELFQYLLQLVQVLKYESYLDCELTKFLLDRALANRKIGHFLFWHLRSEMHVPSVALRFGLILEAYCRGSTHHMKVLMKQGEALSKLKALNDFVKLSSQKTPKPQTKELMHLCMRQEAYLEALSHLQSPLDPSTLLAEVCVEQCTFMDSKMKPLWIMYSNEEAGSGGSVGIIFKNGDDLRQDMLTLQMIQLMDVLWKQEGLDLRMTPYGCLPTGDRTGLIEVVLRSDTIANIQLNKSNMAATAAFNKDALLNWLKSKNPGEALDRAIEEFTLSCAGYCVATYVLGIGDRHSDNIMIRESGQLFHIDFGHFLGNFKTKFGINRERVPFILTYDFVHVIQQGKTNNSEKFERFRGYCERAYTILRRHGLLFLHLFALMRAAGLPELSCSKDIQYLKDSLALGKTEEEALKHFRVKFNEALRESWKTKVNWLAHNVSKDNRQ
T5 sequence (P27986 whole entry partner): as the sequence (P27986 whole entry partner) above

mTOR/MEK1/PI3K = test: In vivo inhibition in A375 flank tumor (Western blot); parameters: species or system mouse; conditions: oral, 2 hour postadministration
From the text: as §2

[11] = mean ± SEM, read-out: PI3K Subtype Inhibition Activity PI3Kγ
[12] = read-out: PI3K Subtype Enzyme Inhibition Data IC50 PI3Kγ
[13] = D54 and A549 tumors, compound 14: 375 mg/kg oral gavage, 2 h, 375 mg/kg
[14] = oral administration, 2 h postadministration, Western blot
[15] = mean ± SEM, read-out: PI3K Subtype Inhibition Activity PI3Kβ
[16] = read-out: PI3K Subtype Enzyme Inhibition Data IC50 PI3Kβ
[17] = mean ± SEM, read-out: PI3K Subtype Inhibition Activity PI3Kα

SMILES: O=C(NOCCOCCOCCOCCN1CCN(c2nc(N3CCOCC3)nc(-n3c(C(F)F)nc4ccccc43)n2)CC1)c1ccc(F)c(F)c1Nc1ccc(I)cc1F [Compound 14]
IC50 (PI3Kγ [1]; [11]): 5800 ± 511 nM
IC50 (PI3Kγ [1]; [12]): 5800 ± 511 nM
size of excised tumors (colon tumors CT-26; CT-26, day 14, vs vehicle control tumors): smaller in volume
tumor growth (colon tumors CT-26; listed as MV4-162): significant reduction of tumor growth
tumor growth (colon tumors CT-26; listed as ST-162): significant tumor growth delays
MEK1 and PI3K activities in tumor relative to vehicle control (MEK1 and PI3K activities [2]): successfully modulated both MEK1 and PI3K activities
phosphorylation of ERK1/2 (MEK1 activity) in excised tumor tissue (ERK1/2 phosphorylation; [13]): inhibited phosphorylation; also recorded: significant inhibition
inhibition of tumor ERK1/2 phosphorylation (ERK1/2 phosphorylation; [14]): 95%
PI3K inhibition in cells ([3]; A549 and D54 cell lines, Western blot): inhibition was demonstrated; also recorded: most pronounced
PI3K activity indicated by level of pAKT ([3]; cultured A549 cells, Western blot vs DMSO): high potency in inhibiting PI3K activity
cell viability (D54 glioma cells): as effective as the combination of ZSTK474 and PD0325901
overall survival [4]: improved animal survival; also recorded: significant improvement (P=0.0054)
phosphorylation of Akt (PI3K activity) in excised tumor tissue (Akt phosphorylation; [13]): inhibited phosphorylation; also recorded: significant inhibition
inhibition of tumor Akt phosphorylation (Akt phosphorylation; [14]): 67%
MEK1 and PI3K activities in tumor relative to vehicle control (MEK1 and PI3K activities [5]): successfully modulated MEK1 and PI3K activities
IC50 (PI3Kβ; [15]): 4070 ± 290 nM
IC50 (PI3Kβ; [16]): 4070 ± 290 nM
IC50 (PI3Kα; [17]): 467 ± 9 nM
tumor growth [6]: significant tumor growth delays; also recorded: significant reduction of tumor growth
Concurrent inhibition in tumor cell lines [7]: Concurrent inhibition was demonstrated
MEK1 and PI3K activities in tumor relative to vehicle control (MEK1 and PI3K activities [8]): successfully modulated both MEK1 and PI3K activities
IC50 (MEK1): 0.15 nM
cell viability (A549 lung tumor cells): as effective as the combination of ZSTK474 and PD0325901
IC50 (PI3K): 191 to 341 nM
MEK inhibition in cells [9]: inhibition was demonstrated; also recorded: most pronounced

IC50 (PI3Kγ [1]; ST-182 and intermediates, read-out: PI3Kγ IC50): 0.83 ± 0.1 nM
SMILES: COc1ncc(-c2ccc3nccc(-c4ccnnc4)c3c2)cc1NS(=O)(=O)c1ccc(F)cc1F [GSK 458, reference compound]
IC50 (PI3Kγ [10]): 0.06 nM

IC50 (PI3Kγ [1]; [11]): 2290 ± 241 nM
IC50 (PI3Kγ [1]; [12]): 2290 ± 241 nM
IC50 (PI3Kβ; [15]): 1480 ± 377 nM
IC50 (PI3Kβ; [16]): 1480 ± 377 nM
IC50 (PI3Kα; [17]): 69.2 ± 2.2 nM
IC50 (PI3Kα; read-out: PI3K Subtype Enzyme Inhibition Data IC50 PI3Kα): 69.2 ± 2.2 nM
IC50 (PI3Kδ; mean ± SEM, read-out: PI3K Subtype Inhibition Activity PI3Kδ): 41.7 ± 2.1 nM
IC50 (PI3Kδ; read-out: PI3K Subtype Enzyme Inhibition Data IC50 PI3Kδ): 41.7 ± 2.1 nM
SMILES: O=C(NOCCOCCOCCOCCC(=O)N1CCN(c2nc(N3CCOCC3)nc(-n3c(C(F)F)nc4ccccc43)n2)CC1)c1ccc(F)c(F)c1Nc1ccc(I)cc1F [ST-168]
MEK1 and PI3K activities in tumor relative to vehicle control (MEK1 and PI3K activities [2]): successfully modulated both MEK1 and PI3K activities
reduction in tumor size over vehicle control (A375 melanoma tumor; A375, 400 mg/kg daily oral, 35 days post-treatment initiation): > 6 fold
lifespan (A375 melanoma tumor; A375 tumor bearing mice, 400 mg/kg daily oral): significantly increased lifespan
side effects (such as loss in body weight) (A375 melanoma tumor; long term dosage, 40 daily oral doses, 400 mg/kg): no detectable side effects
MEK1 and PI3K activities in tumor relative to vehicle control (MEK1 and PI3K activities [5]): successfully modulated MEK1 and PI3K activities
Concurrent inhibition in tumor cell lines [7]: Concurrent inhibition was demonstrated
MEK1 and PI3K activities in tumor relative to vehicle control (MEK1 and PI3K activities [8]): successfully modulated both MEK1 and PI3K activities
inhibition of mTOR/MEK1/PI3K in tumor tissue (mTOR/MEK1/PI3K): combined inhibition of mTOR/MEK1/PI3K was achieved
